Patent US20250283038A1, “COMPOUNDS INDUCING PRODUCTION OF PROTEINS BY IMMUNE CELLS” (UNIVERSITE PARIS CITE, priority 2022, published 2025)

Tested on: human B cells
Assay: IL-10 induction in human B cells cultivated with anti-IgM plus CpG, IL-10 measured in cell culture supernatants
Assay type: cell-based
Settings: 2 consecutive days, molecule at 0.25 μM final concentration
Method: Human B cells isolated magnetically through negative selection (B Cell Isolation Kit II, human, Miltenyi ref: 130-091-151) were cultivated for 2 consecutive days in the presence of anti-IgM plus CpG in the presence of the indicated molecule (see table 3) at 0.25μM final concentration. IL-10 was measured in cell culture supernatants.
Human B cells isolated magnetically through negative selection (B Cell Isolation Kit II, human, Miltenyi ref: 130-091-151) were cultivated for 2 consecutive days in the presence of anti-IgM plus CpG in the presence of DMSO (as control) or in the presence of the tested molecules at 0.25 microM final concentration. IL-10 was measured in cell culture supernatants. NS: non stimulated B cell culture condition.

Substance: N-(2-(4-fluorophenyl)imidazo[1,2-a]pyridin-6-yl)-2-methoxybenzamide [Compound 217]
- II-10 Induction Mean (pg/mL) human: 2.06 pg/mL
